Experimental data: US20010041724A1, “METHOD FOR THE CONTROL OF FLEA BEETLES IN CANOLA” (priority 1998, published 2001)

Experiments:
[1] = test system: Phyllotreta spp. (flea beetles); test: Canola seed treatment, shot-hole damage assessment post-emergence; assay type: in vivo; conditions: 4, 7, 10 and 14 days post-emergence
Protocol: Acetamiprid is applied to canola seed at rates of 7.5, 10, and 12.5 grams of active ingredient per kg of seed. Imidacloprid is applied to canola seed at rate of 15 g/kg of seed. The seed is planted and allowed to grow. At 4, 7, 10 and 14 days post-emergence of the plant, damage is assessed for the plants by looking for shot-hole damage.

[2] = test system: canola; test: Canola seed treatment, yield at end of growing season; assay type: in vivo; conditions: canola seed treated with acetamiprid; end of the growing season

C/C(=N\C#N)N(C)Cc1ccc(Cl)nc1 [acetamiprid, (E)-N^1-[(6-chloro-3-pyridyl)methyl]-N^2-cyano-N^1-methylacetamidine]
control of shot-hole damage relative to imidacloprid ([1]; acetamiprid 7.5, 10 and 12.5 g a.i./kg canola seed vs imidacloprid 15 g/kg seed): substantially more control than imidacloprid
control of shot-hole damage relative to two stage lindane+terbufos treatment ([1]; acetamiprid 7.5, 10 and 12.5 g a.i./kg canola seed): generally equivalent to the two stage lindane+terbufos treatment
yield of plants grown from treated seed [2]: general yield increase
